One compound from ChEMBL document CHEMBL2380196, “New anticancer active and selective phenylene-bisbenzothiazoles: synthesis, antiproliferative evaluation and DNA binding” (Eur J Med Chem, 2013) can be followed below.

Structures are written as SMILES. Activity calls are given as the source filed them. The calls are words filed in the database; no cut-off is given here.

For experiment [1], the target named is T1, DNA topoisomerase 1 (Homo sapiens) (UniProt P11387).
T1 sequence (whole entry): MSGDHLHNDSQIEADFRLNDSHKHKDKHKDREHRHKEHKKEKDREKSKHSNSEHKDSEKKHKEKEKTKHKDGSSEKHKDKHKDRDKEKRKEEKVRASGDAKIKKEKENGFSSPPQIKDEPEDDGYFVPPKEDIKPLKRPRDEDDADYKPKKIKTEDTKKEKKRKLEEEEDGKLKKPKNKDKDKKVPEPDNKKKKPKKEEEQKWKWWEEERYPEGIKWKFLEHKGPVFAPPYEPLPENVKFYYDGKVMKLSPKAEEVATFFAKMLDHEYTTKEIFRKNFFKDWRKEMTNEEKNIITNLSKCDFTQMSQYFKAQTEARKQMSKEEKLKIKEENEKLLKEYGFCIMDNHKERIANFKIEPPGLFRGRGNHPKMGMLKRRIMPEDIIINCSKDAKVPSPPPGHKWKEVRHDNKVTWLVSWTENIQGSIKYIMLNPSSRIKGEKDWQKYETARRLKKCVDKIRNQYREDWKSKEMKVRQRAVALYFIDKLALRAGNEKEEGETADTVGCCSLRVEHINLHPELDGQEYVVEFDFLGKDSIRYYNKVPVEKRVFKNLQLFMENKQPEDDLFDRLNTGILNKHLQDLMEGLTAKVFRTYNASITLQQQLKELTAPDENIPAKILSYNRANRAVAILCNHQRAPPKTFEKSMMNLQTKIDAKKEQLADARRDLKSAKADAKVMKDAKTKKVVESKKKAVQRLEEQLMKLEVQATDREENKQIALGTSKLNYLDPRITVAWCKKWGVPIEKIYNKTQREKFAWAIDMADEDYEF
Put plainly: Inhibition of human topoisomerase 1-mediated supercoiled pUC19 DNA relaxation assessed as formation of open circle form after 45 mins using ethidium bromide staining by agarose gel electrophoresis.

Experiment [2] in a line: Binding affinity to DNA (unknown origin) after 15 mins by DNase I footprinting assay.
The test system of the next experiment is HeLa. Put plainly: Cell cycle arrest in human HeLa cells assessed as accumulation in S phase after 24 hrs using propidium iodide staining by flow cytometry. Format: functional, cell-based. In general terms: In flow cytometry, cells or beads pass a laser one at a time.
The test system of experiment [3] is SW-620. Description: Induction of apoptosis in human SW620 cells at 10 uM after 48 hrs using propidium iodide/Annexin-V staining by flow cytometry relative to control. Type of experiment: functional.
Experiment [4] deals with SW-620. Put plainly: Induction of apoptosis in human SW620 cells at 10 uM after 24 hrs using propidium iodide/Annexin-V staining by flow cytometry relative to control. Format: functional.
In experiment [5] the test system is SW-620. Description: Cell cycle arrest in human SW620 cells assessed as accumulation in G1 phase at 10 uM after 48 hrs using propidium iodide staining by flow cytometry relative to control. Type of experiment: functional.
Experiment [6] concerns SW-620. Description: Cell cycle arrest in human SW620 cells assessed as accumulation in sub-G1 phase at 10 uM after 48 hrs using propidium iodide staining by flow cytometry relative to control. Format: functional.
Experiment [7] relates to SW-620. Description: Cell cycle arrest in human SW620 cells assessed as accumulation in sub-G1 phase at 5 uM after 48 hrs using propidium iodide staining by flow cytometry relative to control. Type of experiment: functional.
Experiment [8] has as its system SW-620. Description: Cell cycle arrest in human SW620 cells assessed as accumulation in G2/M phase at 10 uM after 24 hrs using propidium iodide staining by flow cytometry relative to control. Type of experiment: functional.
In experiment [9] the test system is SW-620. Description: Cell cycle arrest in human SW620 cells assessed as accumulation in S phase at 10 uM after 24 hrs using propidium iodide staining by flow cytometry relative to control. Type of experiment: functional.
Experiment [10] concerns SW-620. Put plainly: Cell cycle arrest in human SW620 cells assessed as accumulation in G1 phase at 10 uM after 24 hrs using propidium iodide staining by flow cytometry relative to control. Type of experiment: functional.
Experiment [11] has as its system SW-620. Put plainly: Cell cycle arrest in human SW620 cells assessed as accumulation in sub-G1 phase at 10 uM after 24 hrs using propidium iodide staining by flow cytometry relative to control. Type of experiment: functional.
Experiment [12] concerns SW-620. Description: Cell cycle arrest in human SW620 cells assessed as accumulation in G2/M phase at 5 uM after 24 hrs using propidium iodide staining by flow cytometry relative to control. Format: functional.
Experiment [13] has as its system SW-620. Description: Cell cycle arrest in human SW620 cells assessed as accumulation in G1 phase at 5 uM after 24 hrs using propidium iodide staining by flow cytometry relative to control. Type of experiment: functional.

`Cl.Cl.c1cc(-c2nc3ccc(C4=NCCN4)cc3s2)cc(-c2nc3ccc(C4=NCCN4)cc3s2)c1`: the inhibition result in experiment [1] was “Active”. In experiment [2], the outcome was Active. Besides, the Activity entry in the experiment on HeLa was “Dose-dependent effect”; in the experiment with SW-620 [3] it was 95%; in the experiment with SW-620 [4], 8%; with SW-620 [5], 23.7%; with SW-620 [6], 13.6%; in the experiment with SW-620 [7], 24.8%. The Activity is reported as 23.9% in the experiment with SW-620 [8]; 65.6% in the experiment with SW-620 [9]; 29.9% with SW-620 [10]; 45.3% with SW-620 [11]; 15.5% in the experiment on SW-620 [12]; 45.3% with SW-620 [13].
